How the values were obtained:
[1] = 100 µM, same conditions, compared with GK-667; cited from earlier work
[2] = system: neonatal ventricular cardiomyocytes (NVCMs); assay: In vitro cardioprotection bioassay against daunorubicin toxicity (LDH release); type: cell-based, rat; conditions: 3 h preincubation, DAU 1.2 µM, LDH release after 48 h
Protocol: NVCMs were isolated in-house from 1- to 3-day-old Wistar rats as described previously. The use of animals and experimental protocols were approved by Charles University, Faculty of Pharmacy Animal Welfare Committee. All experiments were performed in accordance with Directive 2010/63/EU on the Protection of Animals Used for Scientific Purposes and in compliance with Animal Research: Reporting of In Vivo Experiments (ARRIVE) guidelines. Newly isolated cardiomyocytes were left for 40 h to form a monolayer of spontaneously beating cardiomyocytes in seeding medium (DMEM/F12 supplemented with 10% HS, 5% FBS, 4% PYR and 1% P/S), which was then replaced with culture medium (DMEM/F12 supplemented with 5% FBS, 4% PYR and 1% P/S). The medium was replaced again after 24 h for new culture medium.
After 3 h, DAU solution (1.2 µM) was added to the media. After another 3 h, the medium was replaced with new (drug-free) exposure medium, and the cardiomyocytes were then kept until the end of the experiment. In addition to cytoprotective properties, the toxicity of the studied agent was also examined; this experiment was performed as described above with only the DAU addition step omitted.
Forty-five hours after the last medium exchange, a sample of medium was taken from each well to assess lactate dehydrogenase (LDH) activity[27]–[29]. For details, see the Supplementary material.
1.5 LDH activity evaluation
The control wells were treated with lysis buffer (0.1 M potassium phosphate, 1% Triton
X-100, 1 mM DTT, 2 mM EDTA; pH 7.8; 15 min; room temperature) to measure the total
cellular LDH level (sum of the activity in the control medium and the lysate). The activity of
LDH was assayed in Tris-HCl buffer (pH 8.9) containing 35 mM sodium lactate and 5 mM
NAD+. The rate of NAD+ reduction was monitored spectrophotometrically at 340 nm for 2 min.
The slope of the linear region and molar absorption coefficient e = 6.22*10 3 M/cm were used
to calculate the LDH activity, and the data were expressed as a percentage of total L DH activity. […]

[3] = system: topoisomerase IIβ (TOP2B); conditions: compared with DEX; cited from earlier work

Row | Molecule | decomposition in DMEM [1] | lowest concentration with significant protection against DAU-induced toxicity [2] | potency in the TOP2B inhibitory assay [3]
1 | CC(C)COC(=O)OCN1C(=O)CN(CCN2CC(=O)N(COC(=O)OCC(C)C)C(=O)C2)CC1=O [sobuzoxane] | much slower | – | –
2 | ICRF-193 [reference compound] | – | 0.3 µM | markedly higher potency

Reference: PMC7904827 (Scientific Reports, 2021)
